{
  "source": "patent US8883415B2",
  "about": "“Aza-benzazolium containing cyanine dyes” (Life Technologies Corporation, priority 1999, dated 2014)",
  "key": {"[1]": {"tested_on": "proteins", "assay": "Detection of proteins in SDS-polyacrylamide gels", "type": "binding", "conditions": "1-3 μM dye in 7.5% acetic acid", "description": "The pure protein or mixture of proteins of interest is prepared in Loading Buffer (50 mM Tris-HCl, pH 6.8, 2% SDS, 10% glycerol, and 0.015% bromophenol blue). Dithiothreitol is added to each sample, to a final concentration of 0.1 M. The samples are heated for 4-5 minutes at 90-95 °C and loaded onto a 15% Tris-glycine polyacrylamide mini- or full-sized gel containing 0.05%-0.1% SDS, with a 4% stacking gel. The gel is electrophoresed under standard conditions, in a standard Tris-glycine buffer containing 0.05%-0.1% SDS. The resulting gel is transferred to a small staining dish containing a 1-3 μM solution of Compound 25 in 7.5% acetic acid (in water). The staining solution is then covered with foil to protect it from room light and gently agitated for 45 minutes-1 hour. […] The gel is then removed from the staining dish, rinsed briefly in 7.5% acetic acid and transferred directly to a UV-transilluminator. The gel, with the stained protein bands is photographed using 300 nm transillumination and black and white POLAROID 667 print film with a Wratten 9 gelatin filter. […] Proteins appear as white bands on a grey to black background in the POLAROID photograph."}, "[2]": {"tested_on": "18-base oligodeoxynucleotide sequencing primer", "assay": "Detecting oligonucleotides in solution", "type": "binding", "conditions": "Excitation 540 nm/Emission 570 nm", "description": "Selected dyes of the invention are dissolved in DMSO at 1-10 micromolar concentration, then diluted into 10 mM Tris-HCl, 1 mM EDTA, pH 7.5 to a final optical density of 0.1 or 0.01 at 530 nm or 540 nm. The resulting dye solutions are combined with an equal volume of an 18-base oligodeoxynucleotide sequencing primer solution at concentrations of 0.1 ng/mL to 1 microgram/mL in the same buffer. The resulting mixture is mixed gently and incubated for 5-60 minutes at room temperature, protected from light, and the sample fluorescence is measured in a fluorescence microplate reader."}, "[3]": {"tested_on": "double-stranded DNA", "assay": "Detecting double-stranded DNA in solution (fluorescence microplate reader)", "type": "binding", "description": "Samples containing 0.1 ng/mL to 1 microgram/mL double-stranded DNA are prepared in 10 mM Tris-HCl, 1 mM EDTA, pH 7.5. The selected dye of the invention is dissolved in DMSO at a concentration of 1-10 mM and then diluted into the same buffer at a concentration sufficient to achieve final optical densities of 0.1 and 0.01 at 500 nm, 530 nm, 540 nm or 560 nm. Equal volumes (100 microliters each) of DNA sample solution and dye solution at each concentration are combined and mixed gently at room temperature in a microplate well.\nSamples are allowed to equilibrate for 5-60 minutes, protected from light, and the fluorescence of the sample is measured using a fluorescence microplate reader. DNA concentration is determined by comparison of the sample fluorescence with a standard curve obtained with that dye for each dye concentration. The sensitivity limit of several dyes in this assay is shown (Table 5)."}, "[4]": {"tested_on": "double-stranded bacteriophage λ cl857 DNA that is digested with HindIII restriction endonuclease", "assay": "Detecting nucleic acids in gels", "type": "binding", "conditions": "POLAROID 667 B&W film; FOTODYNE 254 nm epi.; 1 micromolar dye"}, "[5]": {"tested_on": "double-stranded bacteriophage λ cl857 DNA that is digested with HindIII restriction endonuclease", "assay": "Detecting nucleic acids in gels", "type": "binding", "conditions": "1 micromolar dye", "description": "DNA samples are loaded onto agarose or polyacrylamide gels and electrophoresed using standard conditions. Selected dyes of the invention are dissolved in DMSO at a concentration of 1-10 micromolar and diluted into 0.5×TBE buffer to a final concentration of 1 micromolar dye. Gels are incubated for 20-90 minutes in this staining solution, with gentle agitation, at room temperature, protected from light. Nucleic acids are visualized by transillumination at 300 nm, followed by direct visual detection or photography using Polaroid black-and-white print film. Nucleic acids are alternatively visualized by scanning using a FMBIO II laser scanner with a 532 nm frequency-doubled YAG laser source or a charge-coupled device camera system coupled with an ultraviolet (300 nm) light source, or a visible light transilluminator."}, "[6]": {"tested_on": "Escherichia coli ribosomal RNA", "assay": "Detecting RNA in solution", "type": "binding", "conditions": "Excitation 540 nm/Emission 570 nm", "description": "Selected dyes of the invention are dissolved in DMSO at 1-10 micromolar concentration, then diluted into 10 mM Tris-HCl, 1 mM EDTA, pH 7.5 to a final optical density of 0.1 or 0.01 at 530 nm or 540 nm. These dye solutions are combined with an equal volume of Escherichia coli ribosomal RNA at concentrations ranging from 0.25 ng/mL to 1 microgram/mL in microplate wells. The resulting mixtures are mixed gently and incubated for 5-60 minutes at room temperature, protected from light, and the sample fluorescence is measured."}, "[7]": {"tested_on": "Jurkat human T-cell leukemia cells", "assay": "Detection of apoptosis by flow cytometry", "type": "cell-based", "conditions": "30 minutes on ice, 488 nm excitation", "description": "A 1 mM solution of Compound 27 in DMSO is prepared. Jurkat human T-cell leukemia cells are treated with 10 μM camptothecin to induce apoptosis. A sample of the cells (1×10^8 cells/mL) is incubated with enough of the Compound 27 stock solution to give a final dye concentration of 0.1 μM, and sufficient propidium iodide to give a final concentration of 1.5 μM. After incubating for 30 minutes on ice, the cell samples are analyzed on a FacsVantage flow cytometer using 488-argon laser excitation, with emission at 530/30 and 675/20. Apoptotic cells are compared to control cells that were incubated with the same final concentration of DMSO used in the staining solution."}, "[8]": {"conditions": "Excitation 540 nm/Emission 570 nm"}, "[9]": {"conditions": "Excitation 530 nm/Emission 560 nm"}},
  "data": [
    {"compound": "CC[N+](C)(CC)Cc1ccc(C2=C/C(=C\\c3nc4c(ccc[n+]4C)o3)c3cc(OC)ccc3N2C)cc1", "note": "[Compound 25]", "values": [
      {"measurement": "Visual appearance of stained protein bands", "setting": "[1]; 300 nm transillumination", "value": "brightly fluorescent orange bands"},
      {"measurement": "Visibility of protein bands in stained gel", "setting": "[1]; after 10 minutes", "value": "protein bands are readily apparent"},
      {"measurement": "Sensitivity Limit, High dye concentration (0.1 OD)", "setting": "[2]", "value": "<10", "unit": "ng/mL"},
      {"measurement": "Sensitivity Limit, Low dye concentration (0.01 OD)", "setting": "[2]", "value": ">10", "unit": "ng/mL"},
      {"measurement": "Sensitivity Limit, High dye concentration (0.1 OD)", "setting": "[3]; [8]", "value": "<10", "unit": "ng/mL"},
      {"measurement": "Sensitivity Limit, Low dye concentration (0.01 OD)", "setting": "[3]; [8]", "value": 0.5, "unit": "ng/mL"},
      {"measurement": "Sensitivity for detecting double-stranded DNA in agarose gels", "setting": "[4]", "value": 120, "unit": "pg"},
      {"measurement": "Sensitivity for detecting double-stranded DNA in agarose gels", "setting": "[5]; BOEHRINGER MANNHEIM LUMIIMAGER CCD, 300 nm trans., 520 nm em.", "value": 1700, "unit": "pg"},
      {"measurement": "Sensitivity for detecting double-stranded DNA in agarose gels", "setting": "[5]; BOEHRINGER MANNHEIM LUMIIMAGER CCD, 300 nm trans., 545 nm em", "value": 100, "unit": "pg"},
      {"measurement": "Sensitivity for detecting double-stranded DNA in agarose gels", "setting": "[5]; HITACHI FMBIO II laser scanner, 532 nm freq.-doubled YAG laser", "value": 25, "unit": "pg"},
      {"measurement": "Sensitivity for detecting double-stranded DNA in agarose gels", "setting": "[5]; POLAROID 667 B&W film, DARK READER visible light box", "value": 240, "unit": "pg"},
      {"measurement": "Sensitivity for detecting double-stranded DNA in agarose gels", "setting": "[5]; POLAROID 667 B&W film, FOTODYNE 300 nm trans.", "value": 120, "unit": "pg"},
      {"measurement": "Sensitivity Limit, High dye concentration (0.1 OD)", "setting": "[6]", "value": 200, "unit": "ng/mL"},
      {"measurement": "Sensitivity Limit, Low dye concentration (0.01 OD)", "setting": "[6]", "value": 1.2, "unit": "ng/mL"}
    ]},
    {"compound": "C[n+]1cccc2oc(/C=C3\\C=CN(CCC[N+](C)(C)C)c4ccccc43)nc21", "note": "[Compound 27]", "values": [
      {"measurement": "Differentiation of apoptotic and normal cells (plot of FL1 versus FL3)", "setting": "[7]; 0.1 μM dye, 10 μM camptothecin-induced apoptosis", "value": "capable of differentiating between apoptotic and normal cells"},
      {"measurement": "Sensitivity Limit, High dye concentration (0.1 OD)", "setting": "[3]; [9]", "value": 20, "unit": "ng/mL"},
      {"measurement": "Sensitivity Limit, Low dye concentration (0.01 OD)", "setting": "[3]; [9]", "value": 0.5, "unit": "ng/mL"}
    ]},
    {"compound": "CC[N+](C)(CC)CCC[n+]1c(-c2ccccc2)c2cc(N)ccc2c2ccc(N)cc21.[I-].[I-]", "note": "[propidium iodide, reference compound]", "values": [
      {"measurement": "Cells stained", "setting": "[7]; 1.5 μM", "value": "Late stage apoptotic and necrotic cells are stained"}
    ]}
  ]
}
